The test system of experiment [1] is osteoclasts. In words: Effect on the morphology and survival of osteoclasts. The experiment is classed as cell-based, mouse.
Experiment [2] relates to osteoclasts. Nature of the experiment: Actin ring assay. The experiment is classed as cell-based, mouse. As for the experimental part: In order to observe the formation and shape of actin rings, which function to support the cytoskeleton structure of osteoclasts, an actin ring assay was performed. After removing culture medium, osteoclasts cultured in the presence or absence of destruxin E were fixed with formalin for 10 mins, washed once with a solution containing Tween 20, and treated with 300 U rhodamine phalloidin (Sigma, USA) dissolved in methanol in a dark room.

Experiment [3] concerns osteoclasts. In words: Pit formation assay (bone resorption by osteoclasts on bone fragments). In kind it is cell-based, mouse. Details: Inhibitory Activity versus pit formation: unit not given here. The protocol: Since most osteoclasts growing on bone surfaces have the ability to absorb bone, leaving pits, whether the osteoclasts prepared in Example 1 have bone resorption ability or was not determined by analyzing the number and volume of pits.
Bone fragments were prepared in a thickness of 1 mm, put in methanol, disinfected under UV light on a clean bench, and then transferred to wells of a 96-well plate, after which 100 μl α-MEM medium (10% FCS) was added. […] After incubation for 1 day, bone fragments and osteoclasts growing on them were observed micoscopically and then stored at 4° C.

Experiment [4] concerns ^45Ca-labelled fetal radius and ulna, organ culture. In words: Inhibition of ^45Ca release in mouse organ culture (PTH-induced calcium release). In kind it is cell-based, ddY mice. The protocol:
15 to 16 days pregnant ddY mice were injected subtaneously with a solution of ^45Ca-labelled calcium chloride to label their bone. After one day, mice were anesthetized with ether, and disinfected in 70% ethanol. Fetuses were obtained from, and transferred to a sterile dish. Under a stereo microscope, after cutting forelegs and peeling off skin thereof, attached muscle was removed from radius and ulna, and cartilage portions existing at the both ends of the two bones were then obtained. During the preparation, the bones were kept moist. Before culturing, a stainless steel membrane was put into a 24-well plate containing 0.5 mL BGJb medium (Gibco, USA), and the obtained bone was then placed onto the membrane. After incubation for 24 hours, bone was transferred to destruxin E-containing medium and further incubated for 72 hours. Herein, parathyroid hormone (PTH) inducing release of calcium was used, and the inhibitory effect of destruxin E on the calcium release by PTH was analyzed. The amounts of ^45Ca remaining in bone and released to medium were measured using 5% TCA, and bone-resorbing activity was calculated as follows.
Bone-resorbing activity=released amount of ^45Ca to medium/(released amount of ^45Ca to medium+amount of ^45Ca remaining in bone)×100

As usually defined, the IC50 is the point on the concentration scale where inhibition reaches its midpoint.

Where a SMILES comes first, the peptide text is derived from it. [ ]: non-standard residue; d: D form. dLac(3-vinyl) = C=CC[C@@H](O)C(=O)O; dHica = CC(C)C[C@@H](O)C(=O)O; NMeV = CN[C@H](C(=O)O)C(C)C; NMeA = CN[C@@H](C)C(=O)O; βAla = NCCC(=O)O

As to `C=CC[C@H]1OC(=O)CCNC(=O)[C@H](C)N(C)C(=O)[C@H](C(C)C)N(C)C(=O)[C@H]([C@@H](C)CC)NC(=O)[C@@H]2CCCN2C1=O` [Destruxin A] (cyclo([dLac(3-vinyl)]PI[NMeV][NMeA][βAla])), the “MIC: Minimum Inhibitory Concentration at which survival of all osteoclasts is inhibited” value in experiment [1] was found to be 20 µM.

`CC[C@H](C)[C@@H]1NC(=O)[C@@H]2CCCN2C(=O)[C@@H](CC(C)C)OC(=O)CCNC(=O)[C@H](C)N(C)C(=O)[C@H](C(C)C)N(C)C1=O` [Destruxin B] (cyclo([dHica]PI[NMeV][NMeA][βAla])): the “Inhibitory Activity versus actin ring (%)” value in experiment [2] (0.1 μM destruxin B) was 12%; in experiment [2] (0.5 μM destruxin B), 41%; in experiment [2] (1 μM destruxin B), 92%; in experiment [2] (5 μM destruxin B), 100%. Further, the figures for the IC50 in experiment [2] (read-out: 50% inhibition (IC50) of actin ring formation) and in experiment [3] (read-out: 50% inhibition (IC50) of pit formation) were 600 nM and 200 nM, respectively. In addition, in experiment [1], the “MIC: Minimum Inhibitory Concentration at which survival of all osteoclasts is inhibited” value stood at 10 µM. Also, the “Inhibitory Activity versus pit formation” value in experiment [3] (0.1 μM destruxin B) is 25; in experiment [3] (0.5 μM destruxin B), 71; in experiment [3] (1 μM destruxin B) it was 94; in experiment [3] (5 μM destruxin B), 100.

On to eel calcitonin, for which, in experiment [4], the “Inhibitory effect on ^45Ca release, destruxin E compared with eel calcitonin” value was “the inhibitory effect of destruxin E is higher than that of eel calcitonin”.

The values above are taken from patent US20040102365A1, “Pharmaceutical composition for prevention and remedy of osteoporosis” (priority 2003, published 2004).
